Measured values taken from publication PMC10577883, “Design and Optimization of Novel Competitive, Non-peptidic, SARS-CoV-2 M^pro Inhibitors” (ACS Medicinal Chemistry Letters, 2023).
“And” between values parts separate entries of the source, which are not always exact repeats. Identical values can stand only once.

Columns and labels:
in vitro = conditions: chlorocebus sabaeus
[1] = test system: SARS-CoV-2-Nluc reporter virus; experiment: microbe, parasite or virus in culture; assay type: cell-based; conditions: for EC50: Severe acute respiratory syndrome coronavirus 2, VeroE6/TMPRSS2 cells, parentheses denote 95% confidence intervals
SARS-CoV-2 Mpro (3CLpro) = SARS-CoV-2 Mpro (3CLpro) (Severe acute respiratory syndrome coronavirus 2, UniProt P0DTD1); experiment: SARS-CoV-2 recombinant protease enzymatic assay (FRET); assay type: biochemical; conditions: for IC50: recombinant Mpro, FRET peptide substrate
[2] = Human liver microsome stability assay; conditions: for HLM percentage remaining after 30 min: 3 μM, 37 °C; for half-life at 3 µM / remaining at 5 min, 3 µM / remaining at 10 min, 3 µM / remaining at 0.25 h, 3 µM: human, microsomes
Method: Metabolic Stability Assay
(§1) Liver Microsome Stability Assay Protocol
(§2) Human liver microsomes (HLMs, 20 mg/mL), CD-1 mouse liver microsomes (MLMs, 20 mg/mL), Sprague Dawley
(§3) rat liver microsomes (RLMs, 20 mg/mL) were purchased from Xenotech. NADPH was purchased from Sigma-
(§4) Aldrich and prepared in 10 mM stock solutions of distilled H2O (InvitrogenTM UltraPureTM). Verapamil and
(§5) diphenhydramine were both purchased from Sigma-Aldrich and served as positive controls for LM stability assays.
(§6) Test compounds and positive controls were initially dissolved in DMSO to make 10 mM stock solutions. Sample
(§7) solutions were then further diluted in 100% MeCN to 500 μM. Next, the reactions were prepared by mixing human
(§8) or mouse liver microsomes (55 μL) with potassium phosphate buffer (100 mM, 928 μL) in 1.5 mL Eppendorf tubes.
(§9) The test compounds (6.6 μL of 500 μM solution) were subsequently added to the suspensions, and the reaction
(§10) mixtures were incubated at 37 °C for 5 min. Afterward, the liver microsome reactions were initiated with 110 μL
(§11) of 10 mM NADPH and further incubated at 37 °C for the designated time course of the study. This procedure
(§12) provided experiments with a final volume of 1100 μL (0.6% organic solvent content) and a final test compound
(§13) concentration of 3 μM. Aliquots (100 μL) were removed from each reaction mixture in duplicate at 0, 5, 10, 15,
(§14) and 30 min time intervals and quenched with 100 μL of cold internal standard solution (ISTD, 2 μM
(§15) 7-ethoxy-d 5-coumarin in MeOH or MeCN). Quenched aliquots were then centrifuged at 12,500 g for 5-10 min, and
(§16) the resulting supernatants were withdrawn and placed in LC-MS vials to be analyzed by LC-MS/MS (Agilent
(§17) G6460C QQQ MS coupled with an Infinity II 1260 HPLC). Each test compound was run in tandem with positive and
(§18) negative control experiments for quality assurance. Positive control reactions were conducted at a final volume
(§19) of 550 μL for a single run of each time point. Lastly, the negative control experiment was conducted with test
(§20) compounds and liver microsomes in the absence of NADPH (150 μL) and analyzed at the 30 min time point.
(§21) Data Analysis. Each data point was analyzed in triplicate using in-between blank washes to avoid carry over and
(§22) to equilibrate the column for the subsequent runs. Averages of these triplicates for individual compounds at each
(§23) time point were then normalized to the data at 0 min, representing 100% test compound remaining or 0%
(§24) metabolism. Half-lives (t 1/2) were calculated by plotting ln of % test compound remaining versus time and
(§25) performing linear regression to determine slope.
(§26) Instrumentation and LC-MS/MS Method Development
(§27) LC-MS/MS analyses were conducted on an Agilent 1260 Infinity II HPLC equipped with an Agilent G6460 triple
(§28) quadrupole mass spectrometer (Agilent Technologies, USA). Reverse-phase HPLC separation for each compound
(§29) m) column maintained at 40 °C. The mobile phase used during analyses consisted of either MeOH-H2O (0.1% FA)
(§30) or MeCN-H2O (0.1% FA) at a flow rate of 0.5 mL/min. Each method was developed in the presence of the internal
(§31) standard (ISTD), 7-ethoxy-d 5-coumarin. Precursor and product ion detection was performed with Agilent Jet
(§32) Stream electrospray positive ionization (ESI+) in multiple reaction monitoring (MRM) mode. All MRM transitions,
(§33) MS conditions were as follows: dwell time of 100 ms; gas flow of 10 L/min; nebulizer pressure of 45 psi; delta EMV
(§34) of 200 V. Lastly, all acquired data was processed using Agilent 6460 Quantitative Analysis software.

[3] = Mouse liver microsome stability assay; conditions: for MLM percentage remaining after 30 min: 3 μM, 37 °C; for half-life at 3 µM / remaining at 5 min, 3 µM / remaining at 10 min, 3 µM / remaining at 0.25 h, 3 µM: CD-1, mouse, microsomes
Method: Metabolic Stability Assay
as §1, §2, §3, §4, §5, §6, §7, §8, §9, §10, §11, §12, §13, §14, §15, §16, §17, §18, §19, §20, §21, §22, §23, §24, §25, §26, §27, §28, §29, §30, §31, §32, §33, §34

[4] = Rat liver microsome stability assay; conditions: 37 °C; for remaining at 5 min, 3 µM / remaining at 10 min, 3 µM / remaining at 0.25 h, 3 µM / half-life at 3 µM: Sprague-Dawley, rat, microsomes; for remaining at 5 min, 3 µM / remaining at 10 min, 3 µM / remaining at 0.25 h, 3 µM: RLM Rel % remaining; for half-life at 3 µM: RLM t1/2, 3 μM, unit inferred
Method: Metabolic Stability Assay
as §1, §2, §3, §4, §5, §6, §7, §8, §9, §10, §11, §12, §13, §14, §15, §16, §17, §18, §19, §20, §21, §22, §23, §24, §25, §26, §27, §28, §29, §30, §31, §32, §33, §34

[5] = Liver microsome metabolite identification (LC-HRMS); assay type: in vitro ADME; conditions: liver microsomes, LC-HRMS
Method: Figure S15: Stability of 45 in rat liver microsomes (RLM) at 37 °C
Table S17: Stability of 43 in rat liver microsomes (RLM) at 37 °C
Time Response ratio Average RR Rel % ln
Metabolite identification
Procedure for Liver Microsome Metabolite Identification Assay: Test compounds and positive controls were dissolved in 100% DMSO to make 10 mM stock solutions. The 10 mM stock solutions of test and control […]
(1 picture or pasted object on this page, not shown here) […]
compounds were further diluted in potassium phosphate buffer (100 mM, pH 7.4) to 500 μM to ensure that the organic solvent content was < 0.2%. The liver microsome (HLM or MLM) assay was prepared in a 1.5 mL Eppendorf tube with a final volume of […] for duplicate runs. Each reaction contained phosphate buffer (374 μL), liver microsomes (550 μL), and test compound (66 μL of 500 resulting in a final concentration of 30 μM), μM for the […]
test compound. […] Aliquots (100 μL) were removed in […]
MS analysis was performed using full scan from a mass range of 100-700 m/z at 60k resolution with data dependent MS/MS and MSn programs enabled for the top 5 ions detected for each scan. Compounds are detected based on their MS1 precursor ion accurate mass m/z and identified with matching theoretical and observed accurate mass MS1 ions with interpretation of accurate mass MS/MS spectra from expected […]

SARS-CoV-2 Mpro = conditions: literature value; cited from earlier work

Cc1nc(C)c(COc2cc(Cl)cc(-n3cc(-c4ccc[nH]c4=O)c(=O)n(-c4cccnc4)c3=O)c2)s1 [Compound 40]
CC50 (in vitro): > 100 µM | EC50 [1]: 10.2 µM | IC50 (SARS-CoV-2 Mpro (3CLpro)): 0.016 µM

O=c1[nH]cccc1-c1cn(-c2cc(Cl)cc(OCc3nccn3C(F)F)c2)c(=O)n(-c2cccnc2)c1=O [Compound 41]
CC50 (in vitro): > 100 µM | HLM percentage remaining after 30 min [2]: 70.7% | half-life at 3 µM [2]: > 30 min | remaining at 5 min, 3 µM [2]: 94.5% | remaining at 10 min, 3 µM [2]: 84.4% | remaining at 0.25 h, 3 µM [2]: 66.4% | EC50 [1]: 6.76 µM | MLM percentage remaining after 30 min [3]: 22.8% and 22.79% | half-life at 3 µM [3]: 14.7 min | remaining at 5 min, 3 µM [3]: 63.8% | remaining at 10 min, 3 µM [3]: 50.2% | remaining at 0.25 h, 3 µM [3]: 37.7% | RLM percentage remaining after 30 min ([4]; 3 μM): 90.2% and 90.17% | remaining at 5 min, 3 µM ([4]; 5 min): 97.6% | remaining at 10 min, 3 µM ([4]; 10 min): 95.2% | remaining at 0.25 h, 3 µM ([4]; 15 min): 93.9% | half-life at 3 µM [4]: > 30 min | IC50 (SARS-CoV-2 Mpro (3CLpro)): 0.013 µM

Cn1c([N+](=O)[O-])cnc1COc1cc(Cl)cc(-n2cc(-c3ccc[nH]c3=O)c(=O)n(-c3cccnc3)c2=O)c1 [Compound 42]
CC50 (in vitro): > 100 µM | EC50 [1]: 19.3 µM | IC50 (SARS-CoV-2 Mpro (3CLpro)): 0.012 µM

O=c1[nH]cccc1-c1cn(-c2cc(Cl)cc(OCc3ccccc3Cl)c2)c(=O)n(-c2cccnc2)c1=O [Compound 43]
CC50 (in vitro): > 100 µM | HLM percentage remaining after 30 min [2]: 48% and 47.72% | half-life at 3 µM [2]: 27.8 min | remaining at 5 min, 3 µM [2]: 91.6% | remaining at 10 min, 3 µM [2]: 76.9% | remaining at 0.25 h, 3 µM [2]: 70.7% | EC50 range in words [1]: sub-micromolar | EC50 [1]: 0.13 µM | major microsomal metabolite / metabolic route [5]: ether cleavage | MLM percentage remaining after 30 min [3]: 4.0% and 3.96% | half-life at 3 µM [3]: 3 min | remaining at 5 min, 3 µM [3]: 22.8% | remaining at 10 min, 3 µM [3]: 10.4% | remaining at 0.25 h, 3 µM [3]: 7.53% | RLM percentage remaining after 30 min ([4]; 3 μM): 26.6% and 26.55% and 30.88% | RLM t1/2 ([4]; 3 μM, unit not given): 19.8 min | RLM Rel % remaining ([4]; 5 min): 80.16% | RLM Rel % remaining ([4]; 10 min): 63.43% | RLM Rel % remaining ([4]; 15 min): 57.78% | remaining at 5 min, 3 µM ([4]; 5 min): 71.1% | remaining at 10 min, 3 µM ([4]; 10 min): 55.3% | remaining at 0.25 h, 3 µM ([4]; 15 min): 43.5% | half-life at 3 µM [4]: 16.1 min | IC50 range in words (SARS-CoV-2 Mpro (3CLpro)): single-digit nanomolar range | IC50 (SARS-CoV-2 Mpro (3CLpro)): 0.0086 µM

Cn1cc(COc2cc(Cl)cc(-n3cc(-c4ccc[nH]c4=O)c(=O)n(-c4cccnc4)c3=O)c2)c(C(F)(F)F)n1 [Compound 44]
CC50 (in vitro): > 100 µM | EC50 [1]: 3.3 µM | IC50 range in words (SARS-CoV-2 Mpro (3CLpro)): single-digit nanomolar range | IC50 (SARS-CoV-2 Mpro (3CLpro)): 0.0056 µM

O=c1[nH]cccc1-c1cn(-c2cc(Cl)cc(OCc3ncsc3C(F)(F)F)c2)c(=O)n(-c2cccnc2)c1=O [Compound 45]
CC50 (in vitro): > 100 µM | HLM percentage remaining after 30 min [2]: 19.5% and 19.47% | half-life at 3 µM [2]: 13 min | remaining at 5 min, 3 µM [2]: 84.6% | remaining at 10 min, 3 µM [2]: 49.9% | remaining at 0.25 h, 3 µM [2]: 48.5% | EC50 range in words [1]: sub-micromolar | EC50 [1]: 0.82 µM | MLM percentage remaining after 30 min [3]: 14.4% and 14.41% | half-life at 3 µM [3]: 11 min | remaining at 5 min, 3 µM [3]: 54.6% | remaining at 10 min, 3 µM [3]: 43% | remaining at 0.25 h, 3 µM [3]: 20.6% | RLM percentage remaining after 30 min ([4]; 3 μM): 30.9% | half-life at 3 µM [4]: 18 min | IC50 (SARS-CoV-2 Mpro (3CLpro)): 0.012 µM

Cc1scnc1COc1cc(Cl)cc(-n2cc(-c3ccc(=O)[nH]c3)c(=O)n(-c3cccnc3)c2=O)c1 [Compound 51]
CC50 (in vitro): > 100 µM | EC50 [1]: > 20 µM | IC50 (SARS-CoV-2 Mpro (3CLpro)): 0.12 µM

N#Cc1ccccc1-c1cc(-c2ccccn2)cn(-c2ccccc2)c1=O [Perampanel, perampanel]
IC50 (SARS-CoV-2 Mpro): 100 to 200 µM
